Test results as given in PMC9781652, “Dinuclear Iron Complexes of Iminopyridine-Based Ligands as Selective Cytotoxins for Tumor Cells and Inhibitors of Cancer Cell Migration” (Pharmaceutics, 2022).

Legend:
[1] = system: CCD-18Co human colon fibroblasts; experiment: Cell proliferation assay (MTT), non-tumor CCD-18Co; type: cell-based; conditions: non-tumor cells, 72 h exposure, mean ± SE
Experimental: (§1) Cells were seeded into 96-well plates at densities of 1500 cells per well for OVCAR-8, 1900 for NCI-H460, and 4000 for CCD-18Co. After 24 h of incubation, they were treated for 72 h with different concentrations of the compounds (concentration range: 0.01 to 6 μM for OVCAR-8; 0.05 to 2 μM for NCI-H460; and 0.07 to 70 μM for CCD-18Co cells). When indicated, cells were also incubated with 30 µM of the ROS scavenger Manganese (III) 5,10,15,20-tetrakis (4-benzoic acid) porphyrin (MnTBAP) (Calbiochem, San Diego, CA, USA). Cell viability was measured using the MTT assay as previously described. The IC50 value corresponds to the concentration of the assayed compound that is required to inhibit the cell proliferation by 50%, and was calculated by linear interpolation from the obtained growth curves. All data are reported as the mean ± standard error (SE) calculated from at least three independent experiments with three replicates in each.

[2] = system: NCI-H460 human lung carcinoma cells; experiment: Cell proliferation assay (MTT), NCI-H460; type: cell-based; conditions: for IC50: 72 h exposure, MTT, mean ± SE; for SI NCI-H460 (selectivity index): ratio IC50 CCD-18Co / IC50 NCI-H460
Experimental: as §1

supercoiled pUC18 DNA = experiment: DNA interaction analysis by agarose gel electrophoresis; type: biochemical; conditions: highest concentrations, 24 h, 37 °C, with H2O2
Experimental: The interaction of DNA with the compounds was monitored in an agarose gel electrophoresis as previously described. […] Two other samples were included in the assays: a sample of pUC18 DNA alone as negative control and a sample of pUC18 DNA with 5 µg/mL cisplatin for comparison purposes. […] Gels were stained with ethidium bromide (1 µg/mL in TBE) for 15 min and DNA bands were visualized under UV light.

[3] = system: OVCAR-8 human ovarian carcinoma cells; experiment: Cell proliferation assay (MTT), OVCAR-8; type: cell-based; conditions: for IC50: 72 h exposure, MTT, mean ± SE; for SI OVCAR-8 (selectivity index): ratio IC50 CCD-18Co / IC50 OVCAR-8
Experimental: as §1

Structure (SMILES)	IC50 [1] [µM]	IC50 [2] [µM]	SI NCI-H460 (selectivity index) [2]	Effect on pUC18 DNA in the presence of H2O2 at the highest concentrations (supercoiled pUC18 DNA)	IC50 [3] [µM]	SI OVCAR-8 (selectivity index) [3]
CC#N.CC#N.CC#N.CC#N.Cc1cc(N=Cc2cccc(Br)n2)c2c(c1)C1CC(O2)Oc2c(N=Cc3cccc(Br)n3)cc(C)cc21.Cc1cc(N=Cc2cccc(Br)n2)c2c(c1)C1CC(O2)Oc2c(N=Cc3cccc(Br)n3)cc(C)cc21.F[B-](F)(F)F.F[B-](F)(F)F.F[B-](F)(F)F.F[B-](F)(F)F.[Fe+2].[Fe+2] [Compound 8, [Fe22_2(CH3CN)4](BF4)4]	7 ± 3.43	0.48 ± 0.13	14.6	total DNA degradation	1.27 ± 0.39	5.5
N.N.O=C([O-])C1(C(=O)[O-])CCC1.[Pt+2] [Carboplatin, carboplatin, reference compound]	240 ± 25.2	12.8 ± 2.23	18.8	–	110 ± 4.2	2.1
CC#N.CC#N.CC#N.CC#N.Cc1cc(N=Cc2ccccn2)c2c(c1)C1CC(O2)Oc2c(N=Cc3ccccn3)cc(C)cc21.Cc1cc(N=Cc2ccccn2)c2c(c1)C1CC(O2)Oc2c(N=Cc3ccccn3)cc(C)cc21.F[B-](F)(F)F.F[B-](F)(F)F.F[B-](F)(F)F.F[B-](F)(F)F.[Fe+2].[Fe+2] [Compound 7, [Fe21_2(CH3CN)4](BF4)4]	7.78 ± 5.67	0.43 ± 0.03	18.1	–	1.39 ± 0.14	5.6
CC#N.CC#N.CC#N.CC#N.Cc1cc(N=Cc2ccc3ccccc3n2)c2c(c1)C1CC(O2)Oc2c(N=Cc3ccc4ccccc4n3)cc(C)cc21.Cc1cc(N=Cc2ccc3ccccc3n2)c2c(c1)C1CC(O2)Oc2c(N=Cc3ccc4ccccc4n3)cc(C)cc21.F[B-](F)(F)F.F[B-](F)(F)F.F[B-](F)(F)F.F[B-](F)(F)F.[Fe+2].[Fe+2] [Compound 12, [Fe26_2(CH3CN)4](BF4)4]	4.05 ± 0.62	0.49 ± 0.08	8.1	total DNA degradation	1.24 ± 0.27	3.2
